Data from patent publication US12396992B2, “Organic compounds” (INTRA-CELLULAR THERAPIES, INC., priority 2019, dated 2025).
Entries after “also recorded” stand apart in the source; their conditions may differ. Values belong to the compound of their own block, whether it stands above or below them.

Tests used:
BV2 cells [1] = assay: ADP-induced chemotaxis of BV2 cells in Boyden chamber; format: cell-based, mouse; settings: 100 μM ADP, 4 hrs
Procedure: Chemotaxis towards 100 μM ADP was measured in a Boyden chamber system for 4 hrs against a vehicle control. BV2 cells were added to the upper chamber of a 5 μm pore Boyden chamber with 100 μM ADP or vehicle in the lower chamber and incubated at 37′C with 5% CO2 for 4 hours. The curve was fit to a 4-parameter logarithmic equation with the following constraints: top >80% and bottom <20%. […] As shown in the left panel of FIG. 7A, raw fluorescence counts (relative fluorescence units or RFU), representing the cell count in the lower chamber, were used to calculate control conditions. The Vehicle condition represents the minimum migration, in which there was no ADP present. The maximum migration was shown as the 100 μM ADP condition.
The measured potency correlates with documented IC50 values.

P2Y12 = P2Y12 (Homo sapiens, UniProt Q9H244); settings: P2Y12 inhibitors; read-out: documented IC50; cited from earlier work
BV2 cells [2] = assay: Quantitative PCR of inflammatory cytokine mRNA in LPS-stimulated BV2 cells; format: cell-based, mouse; settings: for LPS-induced expression of Ccl2 / LPS-induced expression of IL1β / LPS-induced expression of TNFα: FIG. 3a; for Chemokine (C—C) motif Ligand 2 expression / Interleukin 1 beta expression / Tumor necrosis factor expression: BV2 + LPS, Q-PCR, initial results
Procedure: Levels of IL1 are measured using quantitative PCR of IL1β mRNA. IL1β is considered a marker of inflammation. Results are depicted in FIG. 2 (RQ: relative quantification of changes in gene expression in treated versus control samples; ***p<0.01 vs control, √p<0.01 vs LPS alone; ANOVA with Newman-Keuls post-hoc test).
BV2 cells are pretreated with compound, ITI-214 or rolipram, a PDE4 inhibitor, then stimulated with 50 ng/ml LPS for 4 hours. Expression levels of TNF, IL1β, Ccl2, and IL6 are measured. Normalized mRNA levels are shown as change from vehicle (ΔΔCt) and compared using a one-way ANOVA. […] The mRNA transcripts for TNF, IL1β, and Ccl2—three of the four cytokines studied in vivo—were elevated in BV2 cells treated with 50 ng/ml LPS.
(§1) The test compound is added first, the LPS is added one hour later, and the cells and/or media are harvested at five hours from commencement of the experiment.
Cells: BV2 mouse microglial cell line (ICLC, Italy) grown in 2% or 10% heat-inactivated FBS.
(§2) RTqPCR: RNA from BV2 cells purified using RNeasyKit (Qiagen) and from mouse tissue using TRIzol (Ambion). TaqMan primer-probe assays from Thermo Fisher. mRNA levels for all conditions are normalized to GAPDH and to vehicle control (ΔΔCt). Data are analyzed statistically using one-way ANOVA with the Bonferroni post-test for multiple comparisons.

mouse striatum [3] = assay: LPS-induced inflammatory gene expression in mouse striatum (Q-PCR); format: in vivo
Procedure: as §2
Data from yet another experiment measuring the effect of PDE1 inhibition on inflammatory gene expression in mouse striatum is depicted in FIG. 6. […] Striatal tissue is analyzed for mRNA levels of TNF, IL1β, Ccl2, and IL6. Expression levels are shown as change in Q-PCR signal from vehicle (ΔΔCt) and compared using an ANOVA. * p<0.05, **p<0.01, ***p<0.001.
The Applicants measure mRNA levels of four common inflammatory markers (TNF, IL1β, Ccl2, and IL6) using quantitative PCR (FIG. 7).

mouse striatum [4] = assay: as above; format: in vivo; settings: initial results
[5] = test system: primary cultured microglia; assay: VASP phosphorylation in primary cultured rat microglia; format: cell-based; settings: 1 μM
Procedure: The above results were replicated in primary cultured microglia isolated from P2 rat whole brain (FIG. 10). Microglia were grown in culture for 12 days in serum-free media containing TGFb2, IL34, and cholesterol. The cells maintained properties in culture consistent with quiescent microglial-like cells, staining positive for Iba1 and maintaining a branched morphology.

BV2 cells [6] = assay: Quantitative PCR of inflammatory cytokine mRNA in LPS-stimulated BV2 cells; format: cell-based, mouse; settings: LPS 10 microgram/ml, Compound 214 10 microgram/ml, FIG. 2
[7] = test system: CT26 colorectal carcinoma cells; assay: CT26 colorectal carcinoma engrafted subcutaneously in mice; format: in vivo, mouse; settings: for number of macrophages (CD45 positive) in the tumor microenvironment: 50 mg/kg, i.p., once daily
Procedure: Mice were engrafted subcutaneously with CT26 colorectal carcinoma cells. Control mice were administered 150 μg IgG (Isotype).

BV2 cells [8] = assay: cAMP (ELISA) and P-VASP S157 (Western blot) in BV2 cells with ADP; format: cell-based, mouse; settings: for P-VASP level at baseline / cAMP level at baseline: no ADP stimulation
Procedure: Cell lysates on a Western were blotted with an antibody to phosphorylated VASP at S157, and the intensity of the resulting bands were measured (as raw signal). […] There was no effect of PDE1 inhibition at baseline, consistent with the hypothesis that PDE1 is important under conditions of stimulation. […] As with cAMP, PDE1 activity (sensitive to ITI-214) appears to contribute about 50% to the total PDE activity (sensitive to IBMX) under conditions of stimulation while having no contribution at baseline. The dose dependent nature of the increase in cAMP is illustrated in FIG. 9.

BV2 cells [9] = assay: LPS-induced TNFα release from BV2 cells (ELISA); format: cell-based, mouse; settings: 50 ng/ml LPS stimulation, FIG. 4
Procedure: TNFα release: TNFα levels are measured in BV2 conditioned media and normalized to cell protein levels. Inhibition of LPS-induced TNFα release from BV2 cells is depicted in FIG. 4.
as §1
TNFα ELISA: Thermo Fisher mouse TNFα colorimetric, sandwich ELISA kit. Interpolate values from standard curve. Dose response is fit to a 4-parameter logistic curve.

bovine brain PDE1 = target: T1, bovine brain PDE1 (Bos taurus, UniProt Q01061); assay: IMAP phosphodiesterase assay, PDE1; format: biochemical
T1 construct: IC50; other: bovine brain PDE1; Ki; other: bovine brain PDE1 assay
Excerpt: Briefly, the IMAP reagent binds with high affinity to the free 5′-phosphate that is found in GMP-fluorescein and not in cGMP-fluorescein. The resulting GMP-fluorescein-IMAP complex is large relative to cGMP-fluorescein. Small fluorophores that are bound up in a large, slowly tumbling, complex can be distinguished from unbound fluorophores, because the photons emitted as they fluoresce retain the same polarity as the photons used to excite the fluorescence.
The PDE1 enzyme is reconstituted with 50% glycerol to 2.5 U/ml. […] The compounds are mixed and pre-incubated with the enzyme for 10 min at room temperature.
The reaction is incubated in dark at room temperature for 15 min.

HL60 cells = assay: cGMP levels in PMA-differentiated HL60 cells with ANP and ionomycin (competitive ELISA); format: cell-based, human
Procedure: We have shown that there is a synergistic effect between ANP and PDE1 inhibition. An immortalized human pro-myeloid cell line (HL60 from ATCC) is grown, differentiated and harvested as described in Bender, A T, and Beavo, J A, 2006, PNAS 103, 460-465. The cells are grown in HEPES buffered RPMI 1640 medium with penicillin, streptomycin, and 10% fetal bovine serum. Phorbol-12-myristate-13-acetate (PMA), at 100 nM for 3 days, is used to differentiate the HL60 cells into macrophage-like cells. Following differentiation, the cells are incubated with a PDE1 inhibitor or vehicle (DMSO) beginning at time 0. At 40 minutes, 5 μM ionomycin (a calcium ionophore) is added. At 50 minutes, 100 nM ANP was added. At 60 minutes, the cells are harvested. Total cGMP levels are measured using a competitive ELISA (Bender and Beavo, 2006).
[drawing 33] is tested for its effect on cGMP levels in this system. […] In addition, the cGMP level attained by co-treatment with ANP and the PDE1 inhibitor is much greater than that obtained by co-treatment with ANP and a mixed PDE1/PDE5 inhibitor, SCH 51866 (used at 5 μM). In this experiment, the calcium ionophore ionomycin (used at 5 μM) is used to raise the intracellular calcium level and to counteract the cGMP rise induced by ANP.

[10] = 10 μM, 50 ng/ml LPS for 4 hours, FIG. 3b
[11] = 10 mg/kg i.p., 500 μg/kg LPS s.c., 2 hours
[12] = 10 mg/kg i.p., 500 μg/kg LPS s.c., 2 hours, does not reach significance
[13] = Striatum Mouse + LPS, Q-PCR, initial results

Chain of P2Y12 (Q9H244 whole entry, species assumed): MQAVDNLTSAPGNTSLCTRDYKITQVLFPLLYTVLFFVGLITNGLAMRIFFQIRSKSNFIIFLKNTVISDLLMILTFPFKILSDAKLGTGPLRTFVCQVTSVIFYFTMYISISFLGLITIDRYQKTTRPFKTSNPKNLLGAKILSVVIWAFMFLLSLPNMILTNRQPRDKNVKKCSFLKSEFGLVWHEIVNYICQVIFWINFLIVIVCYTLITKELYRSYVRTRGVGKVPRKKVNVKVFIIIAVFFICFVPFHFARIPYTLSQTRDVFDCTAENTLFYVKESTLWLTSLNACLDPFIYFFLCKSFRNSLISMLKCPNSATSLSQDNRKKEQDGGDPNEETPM
T1 sequence (Q01061 whole entry): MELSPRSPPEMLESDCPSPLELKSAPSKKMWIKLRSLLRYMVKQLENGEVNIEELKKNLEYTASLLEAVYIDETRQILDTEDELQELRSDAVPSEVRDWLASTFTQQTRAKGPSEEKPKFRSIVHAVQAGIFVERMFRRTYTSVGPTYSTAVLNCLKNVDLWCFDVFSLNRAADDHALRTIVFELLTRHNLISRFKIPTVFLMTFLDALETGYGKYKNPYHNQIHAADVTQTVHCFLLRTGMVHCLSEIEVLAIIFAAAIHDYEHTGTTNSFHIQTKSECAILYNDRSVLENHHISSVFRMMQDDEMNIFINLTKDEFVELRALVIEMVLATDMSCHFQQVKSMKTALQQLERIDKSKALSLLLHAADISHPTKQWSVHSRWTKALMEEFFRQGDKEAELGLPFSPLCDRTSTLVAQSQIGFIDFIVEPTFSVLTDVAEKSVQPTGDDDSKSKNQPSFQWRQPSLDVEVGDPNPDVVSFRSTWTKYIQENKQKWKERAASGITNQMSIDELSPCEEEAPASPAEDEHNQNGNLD

Compound: CCCSc1nc(N)c2ncn([C@@H]3O[C@H](COP(=O)(O)OP(=O)(O)C(F)(F)P(=O)(O)O)[C@@H](O)[C@H]3O)c2n1 [AR-C 66096, reference compound]
chemotaxis of BV2 cells toward ADP (BV2 cells [1]): inhibited ADP induced migration | IC50 (P2Y12): 6.9 nM

Compound: CSCCNc1nc(SCCC(F)(F)F)nc2c1ncn2[C@@H]1O[C@H](COP(=O)(O)OP(=O)(O)C(Cl)(Cl)P(=O)(O)O)[C@@H](O)[C@H]1O [AR-C 69931, reference compound]
chemotaxis of BV2 cells toward ADP (BV2 cells [1]): inhibited ADP induced migration

Compound: CN1C(=O)c2c(nn(Cc3ccc(-c4cccc(F)n4)cc3)c2Nc2ccccc2)N2C1=N[C@@H]1CCC[C@@H]12 [Compound 214]
Ccl2 mRNA signal (BV2 cells [2]; [10]): significantly decreased | IL1β mRNA signal (BV2 cells [2]; [10]): trended downward | TNF mRNA signal (BV2 cells [2]; [10]): significantly decreased | LPS-induced expression of Ccl2 (BV2 cells [2]; 10 μM): significantly reduces | LPS-induced expression of IL1β (BV2 cells [2]; 10 μM): significantly reduces | LPS-induced expression of TNFα (BV2 cells [2]; 10 μM): significantly reduces | Chemokine (C—C) motif Ligand 2 expression (BV2 cells [2]): Down | Interleukin 1 beta expression (BV2 cells [2]): Down | Tumor necrosis factor expression (BV2 cells [2]): Down | striatal mRNA expression of Ccl2 (mouse striatum [3]; [11]): attenuates | striatal mRNA expression of TNF (mouse striatum [3]; [11]): attenuates | LPS-induced inflammatory gene expression changes in mice (mouse striatum [3]; 10 mg/kg i.p., 500 μg/kg LPS s.c., 2 hours, FIG. 6): prevents | striatal mRNA level of IL1-beta (mouse striatum [3]; [12]): trended to lower levels | striatal mRNA level of IL6 (mouse striatum [3]; [12]): trended to lower levels | Chemokine (C—C) motif Ligand 2 expression (mouse striatum [3]; [13]): Down | Oncostatin M expression (mouse striatum [4]): Down | chemotaxis of BV2 cells toward ADP (BV2 cells [1]): inhibits | chemotaxis of BV2 cells toward ADP (BV2 cells [1]; listed as compound 214): reduced chemotaxis of BV2 cells toward 100 μM ADP in a dose-dependent manner | VASP phosphorylation under basal conditions [5]: little effect | increase in VASP phosphorylation after ADP ([5]; 100 μM ADP for 5 mins): significantly enhanced | LPS-induced increase in expression of IL1β mRNA (BV2 cells [6]): significantly blunts; also recorded: suppresses | percentage of responders (tumor volume <500 mm3) ([7]; 1 mg, 5 days a week starting at day 7, alone): increase | number of macrophages (CD45 positive) in the tumor microenvironment ([7]; alone): significantly reduced | number of macrophages (CD45 positive) in the tumor microenvironment ([7]; in combination with an anti-PD1 antibody): significantly reduced | percentage of responders (tumor volume <500 mm3) ([7]; in combination with 150 μg Anti-PD-1 (RMP1-14) on days 7, 11, 14, 17): increase | ADP-induced elevation in cAMP (BV2 cells [8]; 30 min pretreatment, ADP for 5 minutes, ELISA): significantly augmented | ADP-induced P-VASP at serine 157 (BV2 cells [8]; 30 min pretreatment, ADP for 5 minutes, Western blot): significantly augmented | P-VASP level at baseline (BV2 cells [8]): no effect | cAMP level at baseline (BV2 cells [8]): no effect | LPS-induced TNFα release (BV2 cells [9]): dose-dependent inhibition

Ki (bovine brain PDE1): 0.68 nM
Compound: CN1C(=O)c2c(nn(Cc3ccc(C(F)(F)F)cc3)c2Nc2ccccc2)N2C1=N[C@@H]1CCC[C@@H]12 [Example 20 of U.S. Pat. No. 8,273,750, (6aR,9aS)-3-(phenylamino)-5,6a,7,8,9,9a-hexahydro-5-methyl-2-(4-(trifluoromethyl)-benzyl)-cyclopent[4,5]imidazo[1,2-a]pyrazolo[4,3-e]pyrimidin-4(2H)-one]
cGMP level induced in HL60 cells (HL60 cells; 100 nM ANP + 100 nM PDE1 inhibitor, compared with ANP alone or inhibitor alone): greater than that induced by either the ANP alone or the PDE1 inhibitor alone | effect of ionomycin on cGMP (HL60 cells; 5 μM ionomycin combined with ANP and the PDE1 inhibitor): only a weak cGMP lowering effect | cGMP level attained by co-treatment with ANP (HL60 cells; compared with co-treatment with ANP and SCH 51866 (5 μM)): much greater

Compound: CC(C)Cn1c(=O)n(C)c(=O)c2[nH]cnc21 [IBMX, reference compound]
P-VASP level at baseline (BV2 cells [8]): did elevate | cAMP level at baseline (BV2 cells [8]): did elevate

Compound: COc1ccc(C2CNC(=O)C2)cc1OC1CCCC1 (centres unmarked) [rolipram, reference compound]
LPS-induced expression of Ccl2 (BV2 cells [2]; 10 μM): reducing | LPS-induced expression of IL1β (BV2 cells [2]; 10 μM): increasing | LPS-induced expression of TNFα (BV2 cells [2]; 10 μM): reducing | Chemokine (C—C) motif Ligand 2 expression (BV2 cells [2]): Down | Interleukin 1 beta expression (BV2 cells [2]): UP UP | Tumor necrosis factor expression (BV2 cells [2]): Down | Chemokine (C—C) motif Ligand 2 expression (mouse striatum [3]; [13]): Down | Interleukin 1 beta expression (mouse striatum [3]; [13]): UP-UP | Interleukin 6 expression (mouse striatum [3]; [13]): UP-UP | Tumor necrosis factor expression (mouse striatum [3]; [13]): Down | Oncostatin M expression (mouse striatum [4]): Down
